Measured values: US9176131B2, “Method for diagnosing and treating Crohn's disease” (priority 2004, dated 2015)

Tested on: E. coli LF82 strain (adhesion to the brush border of the enterocytes via the type 1 pili)
Assay: Assay of inhibition by D-mannose of adhesion of E. coli LF82 to isolated enterocytes
Assay type: cell-based, Escherichia coli
Settings: for Adhesion index with 2% D-mannose: 2% (w/v) D-mannose, mean number of bacteria adhering to the brush border of an enterocyte; for Adhesion index (% relative) with 2% D-mannose: compared with absence of D-mannose = 100%
Experimental: The adhesion trials were performed as described in Darfeuille-Michaud et al., (1990); S. Knutton et al., (1985) and B. Lafeuille et al., (1981). The frozen intestinal samples were washed 3 times in PBS and the ileal mucosa was scraped with a cover glass in order to detach the enterocytes in PBS buffer supplemented with 0.25 M EDTA. About 10^5 isolated enterocytes were mixed with 10^8 E. coli cells in MEM medium containing 10% fetal calf serum (FCS, Seromed). After incubating for 2 hours at 37° C. and with gentle stirring, the enterocytes were washed 3 times in PBS (pH 7.2). The adhesion of the bacteria was quantified by examining under a phase contrast microscope at magnification×1000. The counting was performed according to a double blind design in order to determine the number of E. coli adhering to the brush border of 30 to 50 enterocytes. The adhesion index is expressed as number of bacteria attached to the brush border of one enterocyte.
The inhibitory power of D-mannose on the adhesion of the E. coli LF82 strain to the brush border of the enterocytes via the type 1 pili was tested. Adhesion trials were performed in the presence of 2% (w/v) D-mannose (Sigma) in MEM containing 10% FCS, the procedure being carried out as described above on enterocytes obtained from 3 CD patients (A, B and C) The results are presented in Table 3.

In the case of `O=C[C@@H](O)[C@@H](O)[C@H](O)[C@H](O)CO` [D-mannose], the “Adhesion index with 2% D-mannose” value (enterocytes of CD patient A) is reported as 0.028, the “Adhesion index (% relative) with 2% D-mannose” value (enterocytes of CD patient A) is reported as 2.7% and the “Adhesion index with 2% D-mannose” value (enterocytes of CD patient B) is reported as 0.032. For the same compound, the “Adhesion index (% relative) with 2% D-mannose” value (enterocytes of CD patient B) was 2.1%, the “Adhesion index with 2% D-mannose” value (enterocytes of CD patient C) was 0.025 and the “Adhesion index (% relative) with 2% D-mannose” value (enterocytes of CD patient C) was 1.4%. The “Effect on index of adhesion of the LF82 strain to the brush border of the enterocytes” value (enterocytes of patients suffering from Crohn's disease, 2% D-mannose) was “significant reduction”.
